We go through 25 compounds from patent publication US12497405B2, “Bicyclic heterocycle compounds methods of use thereof for the treatment of herpes viruses” (Merck Sharp & Dohme LLC, priority 2019, dated 2025).

Assay [1] addresses varicella zoster virus DNA polymerase (Varicella-zoster virus (strain Dumas) (HHV-3) (Human herpesvirus 3), UniProt P09252). The assay can be described thus: VZV polymerase assay (AlphaLISA). Type of assay: biochemical. The note with it: VZV polymerase 0.4 nM, 30 min pre-incubation, 60 minute at 37° C. The protocol:
(§1) Human cytomegalovirus and varicella zoster virus DNA polymerases were expressed via baculovirus vector in SF21 cells and purified. Heterodimeric nucleic acid substrate used in the herpesvirus polymerase reactions were generated by annealing a 59-mer template to a 17-mer digoxigenin-labeled primer. Polymerase (HCMV final concentration of 0.2 nM; VZV final concentration of 0.4 nM) was combined with an inhibitor compound or DMSO in assay buffer (10 mM HEPES, pH 7.5, 25 mM KCl, 25 mM NaCl, 5 mM MgCl2, 5% glycerol, 0.67 mg/ml bovine serum albumin, and 1 mM tris(2-carboxyethyl)phosphine)), and this mixture was pre-incubated for 30 minutes at room temperature in 384-well microtiter plates. The polymerization reaction was initiated by the addition of template/primer substrate (final concentration: 1.6 nM), and dNTPs (final concentration: 24 nM dCTP, 24 nMdGTP, 16 nM dATP, 16 nM dTTP, and 0.8 nM biotin-dUTP). After a 60 minute incubation period at 37° C., the reactions were terminated using quench buffer (25 mM HEPES pH 7.5, 100 mM NaCl, 0.25% Tween-20, 12 mM EDTA, and 1 mg/ml bovine serum albumin). Incorporation of biotinylated UTP was detected with 2.5-5 μg/mL anti-DIG AlphaLISA acceptor beads and 5-10 μg/mL streptavidin AlphaLISA donor beads (PerkinElmer). Compound effects were normalized to the window defined by the controls (DMSO only and pre-quenched wells), and were fit using a 4-parameter algorithm to report an IC50.
(In general: Alpha assays give light when donor and acceptor beads are brought close together.)

Assay [2] concerns the target Human cytomegalovirus DNA polymerase (Human cytomegalovirus (strain AD169) (HHV-5) (Human herpesvirus 5), UniProt P08546). As to the kind of experiment: CMV polymerase assay (AlphaLISA). Type of assay: biochemical. Particulars: HCMV polymerase 0.2 nM, 30 min pre-incubation, 60 minute at 37° C. The protocol: as §1
The test system of another assay is HSV2. The assay can be described thus: Viral qPCR assay, HSV2. Type of assay: cell-based. Particulars: infected cells, viral genome copies by qPCR normalized to PPIA, read-out: HSV2 Cell EC50. The protocol: (§2) MRC5 cells, Vero cells, and MeWo cells were obtained from ATCC, and were maintained at 37° C./5% CO2/90% relative humidity in Minimal Essential Medium with 10% fetal bovine serum, […] L-glutamine, 100 units/ml penicillin and 100 ug/ml streptomycin. Assay plates were prepared by dispensing compounds dissolved in DMSO into wells of 384 well collagen-coated plates using an ECHO acoustic dispenser. Each test compound was tested in a 10-point, serial 3-fold dilution. Controls included uninfected cells and infected cells treated only with DMSO. Assays were initiated by mixing selected cells, in suspension, with virus, and dispensing 50 μl/well infected cells to pre-plated compounds. Plates were incubated at 37° C./5% CO2/90% relative humidity for ˜72 hrs to permit genomic replication, and infected cells were lysed by the addition of an equal volume of lysis buffer (10 mM Tris-HCl, pH8, 50 mM KCl, 2 mM MgCl2, 0.45% NP-40, 0.45% Tween-20, and 100 µg/ml proteinase K). An aliquot of the lysate was then transferred to a 384-well PCR plate and incubated at 56° C. for 1 hour, and then at 95° C. for 10 minutes. Levels of the selected viral gene and of the cellular control, PPIA, were measured in separate 10 μl qPCR assays using TaqMan® Gene Expression Master Mix (Applied Biosystems), and an 7900HT Fast Real-Time PCR System with 384-Well Block Module. 7-point, serial 10-fold dilutions of a plasmid standard were run on each plate to generate a standard curve, and genome copies numbers were calculated by plotting experimental Ct onto linear regression of the standard curve. Viral genome copy numbers were normalized by cellular control copy number, and compound effects were normalized to the window defined by the controls. Calculated % effects were fit using a 4-parameter algorithm, and EC50 was reported.
In general terms: Real-time PCR tracks product formation cycle by cycle.

For another assay, the system named is HSV1. The assay can be described thus: Viral qPCR assay, HSV1. The assay is classed as cell-based. Particulars: infected cells, viral genome copies by qPCR normalized to PPIA, read-out: HSV1 Cell EC50. The method, then:
as §2

The test system of the next assay is CMV. As to the kind of experiment: Viral qPCR assay, CMV. Type of assay: cell-based. The note with it: infected cells, viral genome copies by qPCR normalized to PPIA, read-out: CMV Cell EC50. The protocol: as §2

Molecules are shown by their SMILES. Where two headings read alike, the source gives them in different places.

For the compound `CC(c1ccc(Cl)cc1)n1ccc2ncc(O[C@H]3CCN4C(=O)OC[C@@H]4C3)cc2c1=O` (single isomer, unassigned) [Example 30], the figures for the IC50 in assay [1] and in assay [2] were 157 nM and 207 nM, respectively.
`CC(O)Cc1nc2ccn(Cc3ccc(Cl)cc3)c(=O)c2cc1O[C@H]1CCN2C(=O)OC[C@@H]2C1` (single isomer, unassigned) [Example 33]: the IC50 turned out to be 13 nM in assay [1] and 7.4 nM in assay [2]. In addition, the EC50 turned out to be 234 nM in the assay with HSV2 (Human alphaherpesvirus 2, 72 h); 266 nM in the assay with HSV1 (Human alphaherpesvirus 1, 72 h); 156 nM in the assay on CMV (Human betaherpesvirus 5, 72 h).
For the compound `CC(=O)N1CC[C@@H](Oc2cnc3ccn(Cc4ccc(Cl)cc4)c(=O)c3c2)C[C@H]1C` (single isomer, unassigned) [Example 35], the IC50 in assay [1] turned out to be 82 nM; in assay [2], 66 nM.
In the case of `C[C@@H]1CN(C2CCOC2)CCN1c1ccc2ncn(Cc3ccc(Cl)cc3)c(=O)c2c1` (single isomer, unassigned) [Example 44], the IC50 came out at 144 nM in assay [1] and 77 nM in assay [2]. The EC50 in the assay on HSV2 (Human alphaherpesvirus 2, 72 h) is 1250 nM; in the assay on HSV1 (Human alphaherpesvirus 1, 72 h), 1460 nM; with CMV (Human betaherpesvirus 5, 72 h), 521 nM.
Regarding `CC1CN(C)CCC1(F)c1ccc2ncn(Cc3ccc(Cl)cc3)c(=O)c2c1` (single isomer, unassigned) [Example 47], the half-maximal inhibitory concentration (IC50) in assay [1] was found to be 102 nM; in assay [2], 84 nM. Further, the EC50 in the assay with HSV2 (Human alphaherpesvirus 2, 72 h) is 1370 nM; in the assay on HSV1 (Human alphaherpesvirus 1, 72 h), 1580 nM; in the assay on CMV (Human betaherpesvirus 5, 72 h) it was 550 nM.
Consider `Cc1nc2cc(C3CC(O)C3)c(O[C@H]3CCN4C(=O)OC[C@@H]4C3)cc2c(=O)n1Cc1ccc(Cl)cc1` (single isomer, unassigned) [Example 61], for which the half-maximal inhibitory concentration (IC50) in assay [1] was 11 nM; in assay [2], 6.5 nM. Also, the figures for the concentration for a half-maximal effect (EC50) with HSV2 (~72 hrs), with HSV1 (~72 hrs) and in the assay on CMV (~72 hrs) were 202 nM, 250 nM and 173 nM, respectively.
`Cc1nc2cc(C3CC(O)C3)c(O[C@H]3CCN4C(=O)OC[C@@H]4C3)cc2c(=O)n1Cc1ccc(Cl)cc1` (single isomer, unassigned) [Example 62]: the IC50 came out at 4.8 nM in assay [1] and 1 nM in assay [2]. Also, the results for the half-maximal effective concentration (EC50) in the assay with HSV2 (~72 hrs), with HSV1 (~72 hrs) and in the assay with CMV (~72 hrs) were 57 nM, 113 nM and 57 nM, respectively.
Regarding `Cc1nc2cc(C3CC(C)(O)C3)c(O[C@H]3CCN4C(=O)OC[C@@H]4C3)cc2c(=O)n1Cc1ccc(Cl)cc1` (single isomer, unassigned) [Example 77], the half-inhibitory concentration (IC50) was found to be 3.4 nM in assay [1] and 3.1 nM in assay [2]. For the same compound, the 50% effective concentration (EC50) with HSV2 (Human alphaherpesvirus 2, 72 h) came to 165 nM; in the assay on HSV1 (Human alphaherpesvirus 1, 72 h) it was 157 nM; in the assay on CMV (Human betaherpesvirus 5, 72 h) it was 217 nM.
The like results for `Cc1nc2cc(C3CC(N)C3)c(O[C@H]3CCN4C(=O)OC[C@@H]4C3)cc2c(=O)n1Cc1ccc(C#N)cc1` (single isomer, unassigned) [Example 83] were, in that order, 20 nM, 19 nM, 21000 nM, 6690 nM and 4600 nM.
Consider `Cc1nc2cc(C3CCC3O)c(O[C@H]3CCN4C(=O)OC[C@@H]4C3)cc2c(=O)n1Cc1ccc(C#N)cc1` (single isomer, unassigned) [Example 85], for which the IC50 in assay [1] amounted to 11 nM; in assay [2], 10 nM. Besides, the 50% effective concentration (EC50) turned out to be 736 nM in the assay with HSV2 (Human alphaherpesvirus 2, 72 h); 673 nM in the assay with HSV1 (Human alphaherpesvirus 1, 72 h); 338 nM in the assay with CMV (Human betaherpesvirus 5, 72 h).
For `O=C1OC[C@@H]2C[C@@H](Oc3cnc4c(C5CC5)cn(Cc5ccc(Cl)cc5)c(=O)c4c3)CCN12` [Example 1], the IC50 came to 75 nM in assay [1] and 69 nM in assay [2]. In addition, the EC50 in the assay on HSV2 (~72 hrs) turned out to be 1540 nM; in the assay with HSV1 (~72 hrs) it was 2700 nM; in the assay on CMV (~72 hrs), 1040 nM.
The like results for `O=C1OC[C@@H]2C[C@@H](Oc3cc4c(=O)n(Cc5ccc(Cl)cc5)ccc4cn3)CCN12` [Example 2] were, in that order, 44 nM, 49 nM, 1050 nM, 1700 nM and 872 nM.
The like results for `Cc1nc2cc(CC(C)(C)O)c(O[C@H]3CCN4C(=O)OC[C@@H]4C3)cc2c(=O)n1Cc1ccc(Cl)cc1` [Example 3] were, in that order, 0.5 nM, 2.4 nM, 55 nM, 75 nM and 37 nM.
For the compound `Cc1nc2cc(-c3cnn(C(F)F)c3)c(O[C@H]3CCN4C(=O)OC[C@@H]4C3)cc2c(=O)n1Cc1ccc(Cl)cc1` [Example 4], the half-maximal inhibitory concentration (IC50) was 3.1 nM in assay [1] and 1.1 nM in assay [2]. Further, the values for the EC50 in the assay with HSV2 (~72 hrs), in the assay on HSV1 (~72 hrs) and in the assay with CMV (~72 hrs) were 26 nM, 60 nM and 51 nM, respectively.
Regarding `COc1ncc(-c2cc3nc(C)n(Cc4ccc(Cl)cc4)c(=O)c3cc2O[C@H]2CCN3C(=O)OC[C@@H]3C2)cn1` [Example 5], the EC50 was found to be 85 nM with HSV2 (~72 hrs), 131 nM in the assay on HSV1 (~72 hrs) and 107 nM in the assay with CMV (~72 hrs). Besides, in assay [2], the IC50 came to 15 nM.
Consider `Cc1nc2cc(-c3cnn(C(F)F)c3)c(O[C@H]3CCN4C(=O)OC[C@@H]4C3)cc2c(=O)n1Cc1ccc(C#N)cc1` [Example 6], for which the figures for the concentration for half-maximal inhibition (IC50) in assay [1] and in assay [2] were 5 nM and 1.8 nM, respectively. Moreover, the EC50 in the assay with HSV2 (~72 hrs) came out at 29 nM; in the assay on HSV1 (~72 hrs) it was 47 nM; with CMV (~72 hrs), 56 nM.
The like results for `O=C1OC[C@@H]2C[C@@H](Oc3cc4c(=O)n(Cc5ccc(Cl)cc5)cnc4nc3-c3cnco3)CCN12` [Example 7] were, in that order, 9.2 nM, 4.6 nM, 89 nM, 118 nM and 104 nM.
As for `CN1CCN(c2ccc3ccn(Cc4ccc(Cl)cc4)c(=O)c3c2)CC1` [Example 21], the IC50 in assay [1] came out at 7330 nM; in assay [2] it was 5850 nM.
Take `O=C1OC[C@@H]2C[C@@H](Oc3ccc4c(CO)cn(Cc5ccc(Cl)cc5)c(=O)c4c3)CCN12` [Example 29]: the figures for the half-maximal inhibitory concentration (IC50) in assay [1] and in assay [2] were 13 nM and 21 nM, respectively. The EC50 came out at 256 nM in the assay with HSV1 (Human alphaherpesvirus 1, 72 h) and 240 nM in the assay on CMV (Human betaherpesvirus 5, 72 h).
For the compound `C[C@@H]1CN(C2CCOCC2)CCN1c1ccc2ncn(Cc3ccc(Cl)cc3)c(=O)c2c1` [Example 43], the IC50 is 4960 nM in assay [1] and 9820 nM in assay [2].
The like results for `C[C@@H]1CN(C)CCN1c1cc2c(=O)n(Cc3ccc(Cl)cc3)cnc2cc1-c1cnn(C(F)F)c1` [Example 50] were, in that order, 422 nM and 545 nM.
In the case of `C[C@@H]1CN(C)CCN1c1cc(CC(C)(C)O)c2ncn(Cc3ccc(Cl)cc3)c(=O)c2c1` [Example 55], the values for the half-maximal inhibitory concentration (IC50) in assay [1] and in assay [2] were 139 nM and 109 nM, respectively.
As to `COc1ccc(-c2cc3ncn(Cc4ccc(Cl)cc4)c(=O)c3cc2O[C@H]2CCN3C(=O)OC[C@@H]3C2)cn1` [Example 57], the IC50 in assay [1] and in assay [2] was 43 nM throughout.
Take `Cc1nc2cc(C#N)c(N3CCN(C)C[C@H]3C)cc2c(=O)n1Cc1ccc(C#N)cc1F` [Example 63]: the EC50 stood at 3710 nM in the assay with HSV2 (Human alphaherpesvirus 2, 72 h); 3150 nM with HSV1 (Human alphaherpesvirus 1, 72 h); 498 nM with CMV (Human betaherpesvirus 5, 72 h). In assay [2], this compound showed an IC50 of 235 nM.
For `Cc1nc2c(CC(C)(C)O)cc(O[C@H]3CCN4C(=O)OC[C@@H]4C3)cc2c(=O)n1Cc1ccc(Cl)cc1` [Example 67], the IC50 came to 53 nM in assay [1] and 22 nM in assay [2].

Usually IC50 stands for the concentration needed to halve the response being measured. Usually EC50 stands for the concentration that produces a half-maximal response.
